# Assay results taken from US8846933B2, “N-link hydroxamic acid derivatives useful as antibacterial agents” (Pfizer Inc., priority 2009, dated 2014).
# Assays:
# [1] = tested on: Pseudomonas aeruginosa UI-18: Wild-type (PA-7); assay: MIC determination (CLSI), strain PA-7; assay type: cell-based; settings: strain PA-7, unit assumed
# How it was run: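 Strain tested was P. aeruginosa UI-18, a wild-type isolate labelled PA-7. Minimum inhibitory concentrations followed CLSI dilution methodology for aerobically growing bacteria (M7-A7, M100-S18).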
# [2] = tested on: Escherichia coli EC-1: VOGEL, mouse virulent; assay: MIC determination (CLSI), strain EC-1; assay type: cell-based; settings: strain EC-1, unit assumed
# How it was run: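 The mouse-virulent VOGEL isolate of E. coli, EC-1, served as test organism. Minimum inhibitory concentration was measured by CLSI dilution methodology (M7-A7; M100-S18 standards).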
# [3] = generated in the same manner as in Table 4
Structure (SMILES),PA-7 (MIC) [1] [µg/mL],EC-1 (MIC) [2] [µg/mL],"PA-7 (MIC) [1, 3] [µg/mL]","EC-1 (MIC) [2, 3] [µg/mL]"
"C[C@@](CCn1ccc(-c2ccc3cc(N4CCC(O)CC4)ccc3c2)cc1=O)(C(=O)NO)S(C)(=O)=O [Example 381, (2R)-N-hydroxy-4-{4-[6-(4-hydroxypiperidin-1-yl)-2-naphthyl]-2-oxopyridin-1(2H)-yl}-2-methyl-2-(methylsulfonyl)butanamide]",16,1,–,–
"C[C@@](CCn1ccc(-c2ccc(-c3cccnn3)cc2)cc1=O)(C(=O)NO)S(C)(=O)=O [Example 453, (2R)-N-hydroxy-2-methyl-2-(methylsulfonyl)-4-[2-oxo-4-(4-pyridazin-3-ylphenyl)pyridin-1(2H)-yl]butanamide]",8,4,–,–
"C[C@@](CCn1ccc(-c2ccc(OC3CCNCC3)c(F)c2)cc1=O)(C(=O)NO)S(C)(=O)=O [Example 337, (2R)-4-{4-[3-fluoro-4-(piperidin-4-yloxy)phenyl]-2-oxopyridin-1(2H)-yl}-N-hydroxy-2-methyl-2-(methylsulfonyl)butanamide]",> 64,> 64,–,–
"Cc1c(-c2ccc(C#N)cc2)ccn(CC[C@](C)(C(=O)NO)S(C)(=O)=O)c1=O [Example 398, (2R)-4-[4-(4-cyanophenyl)-3-methyl-2-oxopyridin-1(2H)-yl]-N-hydroxy-2-methyl-2-(methylsulfonyl)butanamide]",2,4,–,–
"CC(CCn1ccc(-c2ccc(C#N)c(F)c2)cc1=O)(C(=O)NO)S(C)(=O)=O (stereo not shown) [Example 207, 4-[4-(4-cyano-3-fluorophenyl)-2-oxopyridin-1(2H)-yl]-N-hydroxy-2-methyl-2-(methylsulfonyl)butanamide]",16,16,–,–
"C[C@@](CCn1ccc(-c2ccc(OC[C@H]3CC[C@H](O)CC3)c(F)c2)cc1=O)(C(=O)NO)S(C)(=O)=O [Example 318, (2R)-4-[4-{3-fluoro-4-[(trans-4-hydroxycyclohexyl)methoxy]phenyl}-2-oxopyridin-1(2H)-yl]-N-hydroxy-2-methyl-2-(methylsulfonyl)butanamide]",1,0.25,–,–
"CC(CCn1ccc(-c2ccc(OCCCN3CCC(O)CC3)cc2)cc1=O)(C(=O)NO)S(C)(=O)=O (stereo not shown) [Example 83, N-hydroxy-4-[4-{4-[3-(4-hydroxypiperidin-1-yl)propoxy]phenyl}-2-oxopyridin-1(2H)-yl]-2-methyl-2-(methylsulfonyl)butanamide]",–,–,16,32
"C[C@@](CCn1ccc(-c2ccc(-n3cnnn3)cc2)cc1=O)(C(=O)NO)S(C)(=O)=O [Example 421, (2R)-N-hydroxy-2-methyl-2-(methylsulfonyl)-4-{2-oxo-4-[4-(1H-tetrazol-1-yl)phenyl]pyridin-1(2H)-yl}butanamide]",64,> 64,–,–
"Cn1ccnc1-c1ccc(-c2ccn(CCC(C)(C(=O)NO)S(C)(=O)=O)c(=O)c2)cc1 (stereo not shown) [Example 104, N-hydroxy-2-methyl-4-{4-[4-(1-methyl-1H-imidazol-2-yl)phenyl]-2-oxopyridin-1(2H)-yl}-2-(methylsulfonyl)butanamide]",–,–,> 64,> 64
"CC(CCn1ccc(-c2ccc(OCCCN3CCOCC3)c(Cl)c2)cc1=O)(C(=O)NO)S(C)(=O)=O (stereo not shown) [Example 221, 4-{4-[3-chloro-4-(3-morpholin-4-ylpropoxy)phenyl]-2-oxopyridin-1(2H)-yl}-N-hydroxy-2-methyl-2-(methylsulfonyl)butanamide]",8,2,–,–
"CC(CCn1ccc(-c2ccc(CC#N)cc2)cc1=O)(C(=O)NO)S(C)(=O)=O (stereo not shown) [Example 129, 4-{4-[4-(cyanomethyl)phenyl]-2-oxopyridin-1(2H)-yl}-N-hydroxy-2-methyl-2-(methylsulfonyl)butanamide]",–,–,32,2
"CC(CCn1ccc(-c2ccc(C(F)(F)CO)cc2)cc1=O)(C(=O)NO)S(C)(=O)=O (stereo not shown) [Example 69, 4-{4-[4-(1,1-difluoro-2-hydroxyethyl)phenyl]-2-oxopyridin-1(2H)-yl}-N-hydroxy-2-methyl-2-(methylsulfonyl)butanamide]",–,–,16,4
"C[C@@](CCn1ccc(-c2ccc3c(c2)OCCCO3)cc1=O)(C(=O)NO)S(C)(=O)=O [Example 330, (2R)-4-[4-(3,4-dihydro-2H-1,5-benzodioxepin-7-yl)-2-oxopyridin-1(2H)-yl]-N-hydroxy-2-methyl-2-(methylsulfonyl)butanamide]",4,0.5,–,–
CC1CC(=O)Nc2ccc(-c3ccn(CCC(C)(C(=O)NO)S(C)(=O)=O)c(=O)c3)cc21 (mixture of isomers) [Example 484],> 64,> 64,–,–
CC(CCn1ccc(-c2ccc(OCCCc3cccnc3)cc2)cc1=O)(C(=O)NO)S(C)(=O)=O (stereo not shown) [Example 88],–,–,2,0.25
"CCNC(=O)c1ccc(-c2ccn(CCC(C)(C(=O)NO)S(C)(=O)=O)c(=O)c2)cc1F (stereo not shown) [Example 177, N-ethyl-2-fluoro-4-{1-[4-(hydroxyamino)-3-methyl-3-(methylsulfonyl)-4-oxobutyl]-2-oxo-1,2-dihydropyridin-4-yl}benzamide]",–,–,64,> 64

Structure (SMILES),PA-7 (MIC) [1] [µg/mL],EC-1 (MIC) [2] [µg/mL],"PA-7 (MIC) [1, 3] [µg/mL]","EC-1 (MIC) [2, 3] [µg/mL]"
"C[C@@](CCn1ccc(-c2ccc(OCC3CCN(C(=O)CO)CC3)cc2)cc1=O)(C(=O)NO)S(C)(=O)=O [Example 311, (2R)-4-[4-{4-[(1-glycoloylpiperidin-4-yl)methoxy]phenyl}-2-oxopyridin-1(2H)-yl]-N-hydroxy-2-methyl-2-(methylsulfonyl)butanamide]",4,1,–,–
C[C@@](CCn1ccc(-c2ccc3c(c2)C(=O)OCC3)cc1=O)(C(=O)NO)S(C)(=O)=O [Example 481],64,> 64,–,–
"Cc1cnc(N2CC=C(c3ccn(CC[C@](C)(C(=O)NO)S(C)(=O)=O)c(=O)c3)CC2)nc1 [Example 420, (2R)-N-hydroxy-2-methyl-4-[1′-(5-methylpyrimidin-2-yl)-2-oxo-1′,2′,3′,6′-tetrahydro-4,4′-bipyridin-1(2H)-yl]-2-(methylsulfonyl)butanamide]",8,4,–,–
"COc1ccc(-c2ccn(CC[C@](C)(C(=O)NO)S(C)(=O)=O)c(=O)c2)cc1C [Example 346, (2R)-N-hydroxy-4-[4-(4-methoxy-3-methylphenyl)-2-oxopyridin-1(2H)-yl]-2-methyl-2-(methylsulfonyl)butanamide]",0.5,0.5,–,–
Cc1c(OCCCCO)ccc(-c2ccn(CC[C@](C)(C(=O)NO)S(C)(=O)=O)c(=O)c2)c1F [Example 324],2,0.25,–,–
"Cc1cc(-c2ccn(CC[C@](C)(C(=O)NO)S(C)(=O)=O)c(=O)c2)ccc1F [Example 325, (2R)-4-[4-(4-fluoro-3-methylphenyl)-2-oxopyridin-1(2H)-yl]-N-hydroxy-2-methyl-2-(methylsulfonyl)butanamide]",0.5,0.5,–,–
Cc1cc(-c2ccn(CC[C@](C)(C(=O)NO)S(C)(=O)=O)c(=O)c2)ccc1C#N [Example 467],2,4,–,–
"COC1(c2ccc(-c3ccn(CC[C@](C)(C(=O)NO)S(C)(=O)=O)c(=O)c3)cc2)CCC1 [Example 352, (2R)-N-hydroxy-4-{4-[4-(1-methoxycyclobutyl)phenyl]-2-oxopyridin-1(2H)-yl}-2-methyl-2-(methylsulfonyl)butanamide]",8,2,–,–
"CCOc1ccc2cc(-c3ccn(CC[C@](C)(C(=O)NO)S(C)(=O)=O)c(=O)c3)ccc2n1 [Example 385, (2R)-4-[4-(2-ethoxyquinolin-6-yl)-2-oxopyridin-1(2H)-yl]-N-hydroxy-2-methyl-2-(methylsulfonyl)butanamide]",0.5,0.06,–,–
"COc1ccc(-c2ccn(CC[C@](C)(C(=O)NO)S(C)(=O)=O)c(=O)c2C)cc1 [Example 397, (2R)-N-hydroxy-4-[4-(4-methoxyphenyl)-3-methyl-2-oxopyridin-1(2H)-yl]-2-methyl-2-(methylsulfonyl)butanamide]",1,0.25,–,–
"C[C@@](CCn1ccc(-c2ccc(-n3ncc[n+]3[O-])cc2)cc1=O)(C(=O)NO)S(C)(=O)=O [Example 401, (2R)-N-hydroxy-2-methyl-2-(methylsulfonyl)-4-{4-[4-(1-oxido-2H-1,2,3-triazol-2-yl)phenyl]-2-oxopyridin-1(2H)-yl}butanamide]",8,8,–,–
COc1cccc(-c2ccn(CCC(C)(C(=O)NO)S(C)(=O)=O)c(=O)c2)c1F (stereo not shown) [Example 90],–,–,2,0.5
"COc1ncc(-c2ccc(-c3ccn(CC[C@](C)(C(=O)NO)S(C)(=O)=O)c(=O)c3)cc2)cn1 [Example 410, (2R)-N-hydroxy-4-{4-[4-(2-methoxypyrimidin-5-yl)phenyl]-2-oxopyridin-1(2H)-yl}-2-methyl-2-(methylsulfonyl)butanamide]",1,0.5,–,–
COc1cc(OCCCCO)ccc1-c1ccn(CCC(C)(C(=O)NO)S(C)(=O)=O)c(=O)c1 (stereo not shown) [Example 245],64,64,–,–
"Cc1cnc(-c2ccc(-c3ccn(CC[C@](C)(C(=O)NO)S(C)(=O)=O)c(=O)c3)cc2)cn1 [Example 457, (2R)-N-hydroxy-2-methyl-4-{4-[4-(5-methylpyrazin-2-yl)phenyl]-2-oxopyridin-1(2H)-yl}-2-(methylsulfonyl)butanamide]",2,0.5,–,–
"CC(CCn1ccc(-c2cc(Cl)cc(Cl)c2)cc1=O)(C(=O)NO)S(C)(=O)=O (stereo not shown) [Example 216, 4-[4-(3,5-dichlorophenyl)-2-oxopyridin-1(2H)-yl]-N-hydroxy-2-methyl-2-(methylsulfonyl)butanamide]",8,4,–,–
